Measured values as given in patent publication US20130236501A1, “Injectable Emulsion of Sedative Hypnotic Agent” (ASTRAZENECA AB, priority 2010, published 2013).
Converted amounts (≈) assume the structure as drawn.

Experiment: Water solubility of Compound A
Type: physicochemical
Procedure: Agents for sedation and anaesthesia are frequently administered by intravenous injection, a form of administration for which the agents need to be in a water-miscible form. Compound A, however, is an oleaginous compound with a water solubility of about 2 mg/ml. Such a compound is considered “slightly soluble” in the solubility definitions in General Notices 5.30 of the United States Pharmacopeia, USP33-NF28, published by the United States Pharmacopeial Convention Inc., Rockville, Md. In the case of Compound A, this solubility is not optimal for a therapeutically useful dose to be prepared simply by dissolution in water. The preparation of slightly soluble medicinal compounds for intravenous administration has been the subject of considerable investigation, but remains a significant challenge in the development of new therapeutic agents. Several drug delivery systems have been investigated for such compounds. In the present application, emulsions, in which droplets of oil, in which the drug is itself dissolved, are dispersed in an aqueous medium with the aid of an emulsifier and other suitable excipients and processing. A similar method is used for the commercial formulation of propofol, (2,6-diisopropyl-phenol), which is commercially available as Diprivan® Injectable Emulsion at concentrations of 1% and 2%. Oil-in-water emulsions comprising propofol are described in WO 96/29064.

CCCOC(=O)Cc1ccc(OCC(=O)N(CC)CC)c(OCC)c1 [Compound A, [3-ethoxy-4-[(N,N-diethylcarbamido)methoxy]phenyl]acetic acid n-propyl ester]
solubility: ~2000 µg/mL (≈ 5.69 mM)
